# PubChem BioAssay AID1963868 (Molecular Pharmacology Branch, DTP, NCI, 2024)
# Tested on: KRAS PDC tumor spheroids (HUVEC+MSC), viability
# Assay: Anticancer human tumor 254851-301-R-J1-PDC patient-derived colon carcinoma cell line growth inhibition [KRAS2]
# Settings: for viability, T/C: stronger effect = lower value
# Summary of the method: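 KRAS-mutant tumor cells were grown as spheroids with HUVEC endothelial cells and human MSCs as stroma. Targeted agents were tested alone and with KRAS pathway inhibitors. Doses started at or near clinical Cmax, or 10 microM, descending half-log.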
# [1] = curve of first compound, second compound 0.1 µM
# [2] = curve of first compound, second compound 0.316 µM
# [3] = curve of first compound, second compound 1 µM
# [4] = curve of first compound, second compound 3.16 µM
# [5] = curve of first compound, second compound 10 µM
# [6] = second compound 0.1 µM, first compound 0.0316 µM
# [7] = second compound 0.1 µM, first compound 0.1 µM
# [8] = second compound 0.1 µM, first compound 0.316 µM
# [9] = second compound 0.1 µM, first compound 1 µM
# [10] = second compound 0.316 µM, first compound 0.0316 µM
# [11] = second compound 0.316 µM, first compound 0.1 µM
# [12] = second compound 0.316 µM, first compound 0.316 µM
# [13] = second compound 0.316 µM, first compound 1 µM
# [14] = second compound 1 µM, first compound 0.0316 µM
# [15] = second compound 1 µM, first compound 0.1 µM
# [16] = second compound 1 µM, first compound 0.316 µM
# [17] = second compound 1 µM, first compound 1 µM
# [18] = second compound 3.16 µM, first compound 0.0316 µM
# [19] = second compound 3.16 µM, first compound 0.1 µM
# [20] = second compound 3.16 µM, first compound 0.316 µM
# [21] = second compound 3.16 µM, first compound 1 µM
# [22] = second compound 10 µM, first compound 0.0316 µM
# [23] = second compound 10 µM, first compound 0.1 µM
# [24] = second compound 10 µM, first compound 0.316 µM
# [25] = second compound 10 µM, first compound 1 µM
# [26] = second compound 0.1 µM, first compound 3.16 µM
# [27] = second compound 0.1 µM, first compound 10 µM
# [28] = second compound 0.316 µM, first compound 3.16 µM
# [29] = second compound 0.316 µM, first compound 10 µM
# [30] = second compound 1 µM, first compound 3.16 µM
# [31] = second compound 1 µM, first compound 10 µM
# [32] = second compound 3.16 µM, first compound 3.16 µM
# [33] = second compound 3.16 µM, first compound 10 µM
# [34] = second compound 10 µM, first compound 3.16 µM
# [35] = second compound 10 µM, first compound 10 µM
# 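Also: spheroids exposed to compounds for seven days before readout.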
# 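For viability, T/C in this document: 100% = DMSO vehicle control luminescence of the spheroids.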
structure (smiles),measurement,setting,value
CCN1CCN(Cc2ccc(Nc3ncc(F)c(-c4cc(F)c5nc(C)n(C(C)C)c5c4)n3)nc2)CC1 + CC1OCC2(CCN(c3cnc(Sc4ccnc(N)c4Cl)c(N)n3)CC2)C1N,IC50,[1],0.526 µM
same,IC50,[2],0.483 µM
same,IC50,[3],0.336 µM
same,IC50,[4],0.0482 µM
same,IC50,[5],0.1 µM
same,"viability, T/C","second compound 0.1 µM, first compound 0.00316 µM",94.5%
same,"viability, T/C","second compound 0.1 µM, first compound 0.01 µM",92.5%
same,"viability, T/C",[6],99.2%
same,"viability, T/C",[7],92.4%
same,"viability, T/C",[8],61.7%
same,"viability, T/C",[9],35.3%
same,"viability, T/C","second compound 0.316 µM, first compound 0.00316 µM",93.9%
same,"viability, T/C","second compound 0.316 µM, first compound 0.01 µM",91.2%
same,"viability, T/C",[10],87.5%
same,"viability, T/C",[11],75.5%
same,"viability, T/C",[12],62.6%
same,"viability, T/C",[13],30.6%
same,"viability, T/C","second compound 1 µM, first compound 0.00316 µM",82.7%
same,"viability, T/C","second compound 1 µM, first compound 0.01 µM",94.3%
same,"viability, T/C",[14],81.2%
same,"viability, T/C",[15],69.2%
same,"viability, T/C",[16],52.5%
same,"viability, T/C",[17],28.8%
same,"viability, T/C","second compound 3.16 µM, first compound 0.00316 µM",54.2%
same,"viability, T/C","second compound 3.16 µM, first compound 0.01 µM",49.7%
same,"viability, T/C",[18],56.6%
same,"viability, T/C",[19],44%
same,"viability, T/C",[20],28.6%
same,"viability, T/C",[21],26.8%
same,"viability, T/C","second compound 10 µM, first compound 0.00316 µM",62.5%
same,"viability, T/C","second compound 10 µM, first compound 0.01 µM",65.8%
same,"viability, T/C",[22],54.8%
same,"viability, T/C",[23],51.3%
same,"viability, T/C",[24],35.5%
same,"viability, T/C",[25],13.5%
CC1(C)CCC(CN2CCN(c3ccc(C(=O)NS(=O)(=O)c4ccc(NCC5CCOCC5)c([N+](=O)[O-])c4)c(Oc4cnc5[nH]ccc5c4)c3)CC2)=C(c2ccc(Cl)cc2)C1 + CC1OCC2(CCN(c3cnc(Sc4ccnc(N)c4Cl)c(N)n3)CC2)C1N,IC50,[1],> 10 µM
same,IC50,[2],> 10 µM
same,IC50,[3],> 10 µM
same,IC50,[4],5.56 µM
same,IC50,[5],2.51 µM
same,"viability, T/C",[6],100%
same,"viability, T/C",[7],104%
same,"viability, T/C",[8],96.7%
same,"viability, T/C",[9],100%
same,"viability, T/C",[26],97.1%
same,"viability, T/C",[27],98.4%
same,"viability, T/C",[10],83.8%
same,"viability, T/C",[11],91%
same,"viability, T/C",[12],84.3%
same,"viability, T/C",[13],84.1%
same,"viability, T/C",[28],84.3%
same,"viability, T/C",[29],65.7%
same,"viability, T/C",[14],85.1%
same,"viability, T/C",[15],89.5%
same,"viability, T/C",[16],78.6%
same,"viability, T/C",[17],88.6%
same,"viability, T/C",[30],80.7%
same,"viability, T/C",[31],54%
same,"viability, T/C",[18],65.3%
same,"viability, T/C",[19],73.9%
same,"viability, T/C",[20],65.3%
same,"viability, T/C",[21],69%
same,"viability, T/C",[32],66.3%
same,"viability, T/C",[33],33%
same,"viability, T/C",[22],64.1%
same,"viability, T/C",[23],66.1%
same,"viability, T/C",[24],69.8%
same,"viability, T/C",[25],62.2%
same,"viability, T/C",[34],46.6%
same,"viability, T/C",[35],3.55%
O=C(c1cc(Cc2n[nH]c(=O)c3ccccc23)ccc1F)N1CCN(C(=O)C2CC2)CC1 + COc1cc2nc(C)nc(NC(C)c3cc(N)cc(C(F)(F)F)c3)c2cc1OC1CCOC1,IC50,[1],> 10 µM
same,IC50,[2],> 10 µM
same,IC50,[3],> 10 µM
same,IC50,[4],> 10 µM
same,IC50,[5],> 10 µM
same,"viability, T/C",[6],111%
same,"viability, T/C",[7],94.5%
same,"viability, T/C",[8],98.5%
same,"viability, T/C",[9],91.8%
same,"viability, T/C",[26],101%
same,"viability, T/C",[27],97.2%
same,"viability, T/C",[10],94.5%
same,"viability, T/C",[11],103%
same,"viability, T/C",[12],95.1%
same,"viability, T/C",[13],96.1%
same,"viability, T/C",[28],96.4%
same,"viability, T/C",[29],104%
same,"viability, T/C",[14],101%
same,"viability, T/C",[15],108%
same,"viability, T/C",[16],101%
same,"viability, T/C",[17],101%
same,"viability, T/C",[30],98.1%
same,"viability, T/C",[31],98.2%
same,"viability, T/C",[18],94.9%
same,"viability, T/C",[19],89.8%
same,"viability, T/C",[20],89.5%
same,"viability, T/C",[21],95.2%
same,"viability, T/C",[32],90.4%
same,"viability, T/C",[33],87.3%
same,"viability, T/C",[22],94.9%
same,"viability, T/C",[23],90%
same,"viability, T/C",[24],91%
same,"viability, T/C",[25],82.7%
same,"viability, T/C",[34],76.2%
same,"viability, T/C",[35],78%
COC(=O)c1ccc2c(C(=Nc3ccc(N(C)C(=O)CN4CCN(C)CC4)cc3)c3ccccc3)c(O)[nH]c2c1 + C=CC(=O)N1CCN(c2nc(OCC3CCCN3C)nc3c2CCN(c2cccc4cccc(C)c24)C3)CC1CC#N,IC50,"curve of first compound, second compound 0.0316 µM",> 10 µM
same,IC50,[1],> 10 µM
same,IC50,[2],> 10 µM
same,IC50,[3],> 10 µM
same,IC50,[4],0.583 µM
same,"viability, T/C","second compound 0.0316 µM, first compound 0.0316 µM",93.5%
same,"viability, T/C","second compound 0.0316 µM, first compound 0.1 µM",89.8%
same,"viability, T/C","second compound 0.0316 µM, first compound 0.316 µM",98.9%
same,"viability, T/C","second compound 0.0316 µM, first compound 1 µM",87.8%
same,"viability, T/C","second compound 0.0316 µM, first compound 3.16 µM",81.7%
same,"viability, T/C","second compound 0.0316 µM, first compound 10 µM",83.3%
same,"viability, T/C",[6],95.5%
same,"viability, T/C",[7],94.9%
same,"viability, T/C",[8],92.3%
same,"viability, T/C",[9],83.8%
same,"viability, T/C",[26],81.8%
same,"viability, T/C",[27],82%
same,"viability, T/C",[10],81%
same,"viability, T/C",[11],88.5%
same,"viability, T/C",[12],86.3%
same,"viability, T/C",[13],77.1%
same,"viability, T/C",[28],68.1%
same,"viability, T/C",[29],77.8%
same,"viability, T/C",[14],85.8%
same,"viability, T/C",[15],86.2%
same,"viability, T/C",[16],86.7%
same,"viability, T/C",[17],78%
same,"viability, T/C",[30],75.6%
same,"viability, T/C",[31],76.3%
same,"viability, T/C",[18],70%
same,"viability, T/C",[19],65.2%
same,"viability, T/C",[20],57.9%
same,"viability, T/C",[21],42.3%
same,"viability, T/C",[32],7.1%
same,"viability, T/C",[33],0.21%
COc1cc2nccc(Oc3ccc(NC(=O)C4(C(=O)Nc5ccc(F)cc5)CC4)cc3)c2cc1OC,"viability, T/C",compound 0.0316 µM,103% [middle of 5 runs]
same,"viability, T/C",compound 0.1 µM,107% [middle of 5 runs]
same,"viability, T/C",compound 0.316 µM,105% [middle of 5 runs]
same,"viability, T/C",compound 1 µM,106% [middle of 5 runs]
same,IC50,curve of compound,> 10 µM
